Assays:
[1] = Percutaneous penetration/permeation in static Franz-type diffusion cells with split-thickness human cadaver skin; type: in vitro ADME; conditions: solution b (1% in propylene glycol/oleyl alcohol 9:1); for Skin concentration: 48 hours, stratum corneum removed
Protocol: Frozen human dorsal cadaver skin (Caucasian; back skin) was obtained from the National Disease Research Interchange, Philadelphia, USA. Skin from three different donors was used;
Thawed skin samples were dermatomed to 0.7 mm with an Aesculap dermatome to obtain “split-thickness” skin.
Percutaneous penetration was studied in vitro by means of static Franz-type diffusion cells with phosphate buffered saline/fetal calf serum 2:1 as receptor fluid at 32° in triplicates for 48 hours. The compounds were applied as 1% solutions (300 μl each) in propylene glycol (solution a) or in propylene glycol/oleyl alcohol 9:1 (solution b). Samples of 100 μl were taken 5 to 7 times and replaced by fresh receptor fluid as described previously (Schmook, et al., Skin Pharmacol. 1993, 6:116-124).
Drug analysis was performed with specimens of the exposed skin (at the end of the 48 hours experiment), from which the stratum corneum had been removed by 20 strippings with an adhesive tape. The weighed skin samples were homogenized in 0.2 M ammonium phosphate buffer (pH 7.0). The homogenates were extracted with ethyl acetate and processed as described (Schmook, et al 1993).

VEGF-R2 (KDR) = VEGF-R2 (KDR) (Homo sapiens, UniProt P35968); experiment: Inhibition of the tyrosine kinase activity of VEGF-R2 (KDR); type: biochemical
Protocol: Inhibition of the Tyrosine Kinase Activity of VEGF-R2 (KDR)
The inhibition test is carried out as described above.

Chain of VEGF-R2 (KDR) (P35968 20-1356, species assumed): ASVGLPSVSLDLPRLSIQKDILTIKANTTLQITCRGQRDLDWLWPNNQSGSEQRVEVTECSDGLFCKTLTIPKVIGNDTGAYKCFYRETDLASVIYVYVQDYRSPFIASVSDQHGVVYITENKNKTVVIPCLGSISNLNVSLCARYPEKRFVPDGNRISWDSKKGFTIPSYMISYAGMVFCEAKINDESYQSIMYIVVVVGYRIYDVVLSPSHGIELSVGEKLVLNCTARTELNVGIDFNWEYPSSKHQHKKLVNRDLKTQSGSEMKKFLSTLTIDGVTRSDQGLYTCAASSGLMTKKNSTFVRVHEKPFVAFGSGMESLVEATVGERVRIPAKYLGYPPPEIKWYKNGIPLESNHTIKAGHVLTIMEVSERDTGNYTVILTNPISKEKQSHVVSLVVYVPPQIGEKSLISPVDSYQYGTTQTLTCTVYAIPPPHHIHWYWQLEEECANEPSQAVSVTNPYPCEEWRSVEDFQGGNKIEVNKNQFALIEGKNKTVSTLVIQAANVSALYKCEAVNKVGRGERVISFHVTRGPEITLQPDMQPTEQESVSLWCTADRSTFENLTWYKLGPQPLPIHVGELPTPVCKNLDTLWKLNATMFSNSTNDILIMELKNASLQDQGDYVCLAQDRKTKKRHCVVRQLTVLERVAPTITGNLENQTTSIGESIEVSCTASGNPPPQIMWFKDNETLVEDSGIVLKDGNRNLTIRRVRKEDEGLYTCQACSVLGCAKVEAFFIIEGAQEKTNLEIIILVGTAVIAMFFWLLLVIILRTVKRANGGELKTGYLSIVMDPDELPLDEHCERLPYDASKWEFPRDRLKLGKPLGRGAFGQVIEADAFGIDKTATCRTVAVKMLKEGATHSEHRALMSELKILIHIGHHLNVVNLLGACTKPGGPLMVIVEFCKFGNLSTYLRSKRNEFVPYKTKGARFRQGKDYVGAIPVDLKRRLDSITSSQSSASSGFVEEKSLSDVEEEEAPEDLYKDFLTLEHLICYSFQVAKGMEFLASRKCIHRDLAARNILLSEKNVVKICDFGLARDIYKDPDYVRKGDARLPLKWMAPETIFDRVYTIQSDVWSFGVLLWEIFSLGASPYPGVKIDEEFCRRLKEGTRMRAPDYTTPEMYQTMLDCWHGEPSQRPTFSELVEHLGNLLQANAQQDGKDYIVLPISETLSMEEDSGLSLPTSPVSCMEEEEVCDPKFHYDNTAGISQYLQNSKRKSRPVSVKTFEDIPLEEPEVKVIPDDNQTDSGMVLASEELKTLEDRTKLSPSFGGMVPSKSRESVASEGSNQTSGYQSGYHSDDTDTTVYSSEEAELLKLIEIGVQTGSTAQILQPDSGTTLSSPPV

| melting point [°C] | SMILES | other results |
| --- | --- | --- |
| 199 to 200 | COC(=O)Nc1nccc(Oc2ccc3c(C(=O)Nc4cccc(C(F)(F)F)c4)cccc3c2)n1 [Example 19, 6-(2-Methoxycarbonylamino-pyrimidin-4-yloxy)-naphthalene-1-carboxylic acid (3-trifluoromethyl-phenyl)-amide] | – |
| 243 to 244 | Nc1cc(Oc2ccc3c(C(=O)Nc4cccc(C(F)(F)F)c4)cccc3c2)ncn1 [Example 26, 6-(6-Amino-pyrimidin-4-yloxy)-naphthalene-1-carboxylic acid (3-trifluoromethyl-phenyl)-amide] | – |
| 156 to 157 | CNc1cc(Oc2ccc3c(C(=O)Nc4ccc(N5CCOCC5)c(C(F)(F)F)c4)cccc3c2)ncn1 [Example 40, 6-(6-Methylamino-pyrimidin-4-yloxy)-naphthalene-1-carboxylic acid (4-morpholin-4-yl-3-trifluoromethyl-phenyl)-amide] | – |
| 178 to 181 | O=C(Nc1cccc(C(F)(F)F)c1)c1cccc2cc(Oc3cc(CCl)ncn3)ccc12 [Example 53, 6-(6-Chloromethyl-pyrimidin-4-yloxy)-naphthalene-1-carboxylic acid (3-trifluoromethyl-phenyl)-amide] | – |
| 180 to 181 | CN(C)Cc1cc(Oc2ccc3c(C(=O)Nc4cccc(C(F)(F)F)c4)cccc3c2)ncn1 [Example 55, 6-(6-Dimethylaminomethyl-pyrimidin-4-yloxy)-naphthalene-1-carboxylic acid (3-trifluoromethyl-phenyl)-amide] | – |
| 80 to 82 | CN(C)CCNC(=O)c1cc(Oc2ccc3c(C(=O)Nc4cccc(C(F)(F)F)c4)cccc3c2)ccn1 [Example 67, 4-[5-(3-Trifluoromethyl-phenylcarbamoyl)-naphthalen-2-yloxy]-pyridine-2-carboxylic acid (2-dimethylamino-ethyl)-amide] | – |
| 230 to 232 | COC(=O)Nc1cc(Oc2ccc3c(C(=O)Nc4cccc(C(F)(F)F)c4)cccc3c2)ccn1 [Example 69, {4-[5-(3-Trifluoromethyl-phenylcarbamoyl)-naphthalen-2-yloxy]-pyridin-2-yl}-carbamic acid methyl ester] | – |
| 225 to 227 | Nc1nccc(CCc2ccc3c(C(=O)Nc4cccc(C(F)(F)F)c4)cccc3c2)n1 [Example 70, 6-[2-(2-Amino-pyrimidin-4-yl)-ethyl]-naphthalene-1-carboxylic acid (3-trifluoromethyl-phenyl)-amide] | – |
| 217 to 220 | Nc1cc(C#Cc2ccc3c(C(=O)Nc4cccc(C(F)(F)F)c4)cccc3c2)ncn1 [Example 71, 6-(6-Amino-pyrimidin-4-ylethynyl)-naphthalene-1-carboxylic acid (3-trifluoromethyl-phenyl)-amide] | – |
| 124 to 126 | CC(C)(C)c1cc(NC(=O)c2cncc3cc(Oc4cc(N)ncn4)ccc23)n(-c2ccc(F)cc2)n1 [Example 94, 7-(6-Amino-pyrimidin-4-yloxy)-isoquinoline-4-carboxylic acid [5-tert-butyl-2-(4-fluoro-phenyl)-2H-pyrazol-3-yl]-amide] | – |
| 205 to 208 | CNc1cc(Oc2ccc3c(C(=O)Nc4cccc(C(F)(F)F)c4)cncc3c2)ncn1 [Example 96, 7-(6-Methylamino-pyrimidin-4-yloxy)-isoquinoline-4-carboxylic acid (3-trifluoromethyl-phenyl)-amide] | – |

The next lines start with the compound.

| SMILES | melting point [°C] | other results |
| --- | --- | --- |
| Nc1cc(Oc2ccc3c(C(=O)Nc4ccc(F)c(C(F)(F)F)c4)cccc3c2)ncn1 | 224 to 225 | – |
| Nc1nccc(Oc2ccc3c(C(=O)Nc4ccc(F)c(C(F)(F)F)c4)cccc3c2)n1 | – | Permeation rate ([1]; batch of skin 3): 19 ± 3 ng/mL/h; Skin concentration ([1]; batch of skin 3): 46 ± 13 µg/g |
| CCN1CCN(Cc2ccc(-c3cc4c(N[C@H](C)c5ccccc5)ncnc4[nH]3)cc2)CC1 | – | Permeation rate ([1]; batch of skin 1): 182 ± 68 ng/mL/h; Skin concentration ([1]; batch of skin 1): 35 ± 12 µg/g; Permeation rate ([1]; batch of skin 2): 189 ± 43 ng/mL/h; Skin concentration ([1]; batch of skin 2): 72 ± 24 µg/g |
| Clc1ccc(Nc2nnc(Cc3ccncc3)c3ccccc23)cc1 | – | Permeation rate ([1]; batch of skin 1): 286 ± 90 ng/mL/h; Skin concentration ([1]; batch of skin 1): 10.4 ± 2.0 µg/g |
| Nc1nccc(Oc2ccc3c(c2)OCCN3C(=O)Nc2ccc(C(F)(F)F)c(C(F)(F)F)c2)n1 [12a)] | – | IC50 (VEGF-R2 (KDR)): 52 nM |
| Nc1nccc(Oc2ccc3c(c2)OCCN3C(=O)Nc2ccc(Cl)c(C(F)(F)F)c2)n1 [12b)] | – | IC50 (VEGF-R2 (KDR)): 10 nM |
| Nc1nccc(Oc2ccc3c(c2)OCCN3C(=O)Nc2ccc(F)c(C(F)(F)F)c2)n1 [12d)] | – | IC50 (VEGF-R2 (KDR)): 73 nM |
| Nc1nc(Cl)cc(Oc2ccc3c(C(=O)Nc4cccc(C(F)(F)F)c4)cccc3c2)n1 [Example 13, 6-(2-Amino-6-chloro-pyrimidin-4-yloxy)-naphthalene-1-carboxylic acid (3-trifluoromethyl-phenyl)-amide] | 234 to 236 | – |
| N#Cc1cc(Oc2ccc3c(C(=O)Nc4cccc(C(F)(F)F)c4)cccc3c2)ncn1 [Example 43, 6-(6-Cyano-pyrimidin-4-yloxy)-naphthalene-1-carboxylic acid (3-trifluoromethyl-phenyl)-amide] | 167 | – |
| CC(C)NC(=O)c1cc(Oc2ccc3c(C(=O)Nc4cccc(C(F)(F)F)c4)cccc3c2)ncn1 [Example 51, 6-[5-(3-Trifluoromethyl-phenylcarbamoyl)-naphthalen-2-yloxy]-pyrimidine-4-carboxylic acid isopropylamide] | 205 to 208 | – |
| CNCc1cc(Oc2ccc3c(C(=O)Nc4cccc(C(F)(F)F)c4)cccc3c2)ncn1 [Example 54, 6-(6-Methylaminomethyl-pyrimidin-4-yloxy)-naphthalene-1-carboxylic acid (3-trifluoromethyl-phenyl)-amide] | 141 to 143 | – |
| Nc1cc(Sc2ccc3c(C(=O)Nc4ccc(F)c(C(F)(F)F)c4)cccc3c2)ncn1 [Example 57, 6-(6-Amino-pyrimidin-4-ylsulfanyl)-naphthalene-1-carboxylic acid (4-fluoro-3-trifluoromethyl-phenyl)-amide] | 221 | – |
| Nc1cc(Sc2ccc3c(C(=O)Nc4cccc(C(F)(F)F)c4)cccc3c2)ncn1 [Example 58, 6-(6-Amino-pyrimidin-4-ylsulfanyl)-naphthalene-1-carboxylic acid (3-trifluoromethyl-phenyl)-amide] | 205 | – |
| Nc1cc(Sc2ccc3c(C(=O)Nc4cccc(OC(F)(F)F)c4)cccc3c2)ncn1 [Example 61, 6-(6-Amino-pyrimidin-4-ylsulfanyl)-naphthalene-1-carboxylic acid (3-trifluoromethoxy-phenyl)-amide] | 197 to 199 | – |
| CCCCOC(=O)c1cc(Oc2ccc3c(C(=O)Nc4cccc(C(F)(F)F)c4)cccc3c2)ccn1 [Example 64, 4-[5-(3-Trifluoromethyl-phenylcarbamoyl)-naphthalen-2-yloxy]-pyridine-2-carboxylic acid butyl ester] | 128 to 130 | – |
| CNC(=O)c1cc(Oc2ccc3c(C(=O)Nc4cccc(C(F)(F)F)c4)cccc3c2)ccn1 [Example 65, 4-[5-(3-Trifluoromethyl-phenylcarbamoyl)-naphthalen-2-yloxy]-pyridine-2-carboxylic acid methylamide] | 175 to 177 | – |
| NC(=O)c1cc(Oc2ccc3c(C(=O)Nc4cccc(C(F)(F)F)c4)cccc3c2)ccn1 [Example 66, 4-[5-(3-Trifluoromethyl-phenylcarbamoyl)-naphthalen-2-yloxy]-pyridine-2-carboxylic acid amide] | 117 to 120 | – |
| Nc1cc(Oc2ccc3c(C(=O)Nc4cccc(C(F)(F)F)c4)cccc3c2)ccn1 [Example 68, 6-(2-Amino-pyridin-4-yloxy)-naphthalene-1-carboxylic acid (3-trifluoromethyl-phenyl)-amide] | 222 to 224 | – |
| CC(C)c1ccc(-n2nc(C(C)(C)C)cc2NC(=O)c2cncc3cc(Oc4cc(N)ncn4)ccc23)cc1 [Example 93, 7-(6-Amino-pyrimidin-4-yloxy)-isoquinoline-4-carboxylic acid [5-tert-butyl-2-(4-isopropyl-phenyl)-2H-pyrazol-3-yl]-amide] | 131 to 133 | – |
| CNc1cc(Oc2ccc3c(C(=O)Nc4ccc(F)c(C(F)(F)F)c4)cncc3c2)ncn1 [Example 95, 7-(6-Methylamino-pyrimidin-4-yloxy)-isoquinoline-4-carboxylic acid (4-fluoro-3-trifluoromethyl-phenyl)-amide] | 255 to 257 | – |
| Nc1nccc(Oc2ccc3c(C(=O)Nc4cccc(C(F)(F)F)c4)cccc3c2)n1 [drawing 76] | – | Permeation rate ([1]; batch of skin 2): 13 ± 3 ng/mL/h; Skin concentration ([1]; batch of skin 2): 44 ± 17 µg/g; Permeation rate ([1]; batch of skin 3): 8 ± 2 ng/mL/h; Skin concentration ([1]; batch of skin 3): 24 ± 6 µg/g |
| Nc1cc(Oc2ccc3c(C(=O)Nc4cccc(C(F)(F)F)c4)cccc3c2)ncn1 [drawing 77] | – | Permeation rate ([1]; batch of skin 3): 12 ± 4 ng/mL/h; Skin concentration ([1]; batch of skin 3): 34 ± 3 µg/g |
| Nc1cc(Oc2ccc3c(C(=O)Nc4ccc(F)c(C(F)(F)F)c4)cccc3c2)ncn1 [drawing 78] | – | Permeation rate ([1]; batch of skin 3): 22 ± 3 ng/mL/h; Skin concentration ([1]; batch of skin 3): 19 ± 7 µg/g |

— patent US20120172386A1, “Combinations Comprising a VEGF Receptor Inhibitor” (NOVARTIS AG, priority 2005, published 2012)
